Reference: patent publication US20150315188A1, “COMPOUNDS AND METHODS FOR TREATMENT OF HYPERTENSION” (MEDIVATION TECHNOLOGIES, INC., priority 2012, published 2015)

What was measured:
Parameters in all cases: purchased Milipore (Millipore)
[1] = target: T1, Human adrenergic α2B receptor (Homo sapiens, UniProt P18089); experiment: Radioligand binding, adrenergic α2B (Protocol Group B); conditions: Protocol Group B; for Percentage inhibition of ligand binding, Adrenergic α2B (10 nM): 0.01 µM; for Percentage inhibition of ligand binding, Adrenergic α2B (30 nM) / inhibition at 0.03 µM: 30 nM compound; for Percentage inhibition of ligand binding, Adrenergic α2B (30 nM): 0.03 µM; for Percentage inhibition of ligand binding, Adrenergic α2B (0.1 μM): 0.1 μM compound; for inhibition at 0.03 µM: read-out: Percentage inhibition of ligand binding, Adrenergic α2B (30 nM)
T1 sequence (P18089 1-450): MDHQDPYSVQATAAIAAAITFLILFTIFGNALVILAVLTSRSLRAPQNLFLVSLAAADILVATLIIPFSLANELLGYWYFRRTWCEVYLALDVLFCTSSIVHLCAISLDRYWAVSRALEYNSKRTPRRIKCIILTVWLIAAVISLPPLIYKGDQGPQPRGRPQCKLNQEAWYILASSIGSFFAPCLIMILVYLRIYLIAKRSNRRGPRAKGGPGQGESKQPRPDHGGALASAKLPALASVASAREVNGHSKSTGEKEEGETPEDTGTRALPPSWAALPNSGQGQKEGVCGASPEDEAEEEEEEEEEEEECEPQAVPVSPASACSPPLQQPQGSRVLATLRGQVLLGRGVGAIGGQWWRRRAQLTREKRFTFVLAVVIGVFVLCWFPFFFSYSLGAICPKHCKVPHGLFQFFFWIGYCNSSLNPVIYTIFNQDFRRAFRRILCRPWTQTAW
How it was run: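 Compounds at various concentrations in 1% DMSO were tested on recombinant membranes in Tris-HCl pH 7.4 buffer containing MgCl2, CaCl2 and 0.2% BSA.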

[2] = target: T2, Human adrenergic α2A receptor (Homo sapiens, UniProt P08913); experiment: Radioligand binding, adrenergic α2A (Protocol Group B); conditions: Protocol Group B; for Percentage inhibition of ligand binding, Adrenergic α2A (0.1 μM): 0.1 μM compound; for Percentage inhibition of ligand binding, Adrenergic α2A (0.3 μM): 0.3 μM compound
T2 sequence (P08913 1-465): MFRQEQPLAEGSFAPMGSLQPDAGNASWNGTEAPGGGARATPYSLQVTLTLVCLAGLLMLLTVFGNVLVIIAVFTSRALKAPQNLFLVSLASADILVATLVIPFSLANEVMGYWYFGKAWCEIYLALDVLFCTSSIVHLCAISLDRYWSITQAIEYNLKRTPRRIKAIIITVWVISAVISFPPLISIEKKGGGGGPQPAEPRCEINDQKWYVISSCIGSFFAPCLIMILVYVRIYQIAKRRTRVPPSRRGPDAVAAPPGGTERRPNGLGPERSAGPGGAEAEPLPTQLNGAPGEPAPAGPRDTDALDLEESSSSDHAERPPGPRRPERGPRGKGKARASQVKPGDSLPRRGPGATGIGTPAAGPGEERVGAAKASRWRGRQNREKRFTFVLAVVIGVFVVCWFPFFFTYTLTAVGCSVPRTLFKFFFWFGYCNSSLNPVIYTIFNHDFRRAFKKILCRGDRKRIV
How it was run: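 Compounds (1% DMSO vehicle, various concentrations) competed against 2 nM [^3H]MK-912 on recombinant receptor membranes for 60 min at 25° C, Tris-HCl pH 7.4 buffer with Mg2+, Ca2+, BSA. Bound radioligand filtered and counted; 10 μM rauwolscine set nonspecific binding. Values: percent inhibition of specific binding or estimated Ki.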

[3] = target: T3, Human adrenergic α1B receptor (Homo sapiens, UniProt P35368); experiment: Radioligand binding, adrenergic α1B (Protocol Group B); conditions: Protocol Group B; for Percentage inhibition of ligand binding, Adrenergic α1B (0.1 μM): 0.1 μM compound; for Percentage inhibition of ligand binding, Adrenergic α1B (0.3 μM) / inhibition at 0.3 µM: 0.3 μM compound; for inhibition at 0.3 µM: read-out: Percentage inhibition of ligand binding, Adrenergic α1B (0.3 μM)
T3 sequence (P35368 1-520): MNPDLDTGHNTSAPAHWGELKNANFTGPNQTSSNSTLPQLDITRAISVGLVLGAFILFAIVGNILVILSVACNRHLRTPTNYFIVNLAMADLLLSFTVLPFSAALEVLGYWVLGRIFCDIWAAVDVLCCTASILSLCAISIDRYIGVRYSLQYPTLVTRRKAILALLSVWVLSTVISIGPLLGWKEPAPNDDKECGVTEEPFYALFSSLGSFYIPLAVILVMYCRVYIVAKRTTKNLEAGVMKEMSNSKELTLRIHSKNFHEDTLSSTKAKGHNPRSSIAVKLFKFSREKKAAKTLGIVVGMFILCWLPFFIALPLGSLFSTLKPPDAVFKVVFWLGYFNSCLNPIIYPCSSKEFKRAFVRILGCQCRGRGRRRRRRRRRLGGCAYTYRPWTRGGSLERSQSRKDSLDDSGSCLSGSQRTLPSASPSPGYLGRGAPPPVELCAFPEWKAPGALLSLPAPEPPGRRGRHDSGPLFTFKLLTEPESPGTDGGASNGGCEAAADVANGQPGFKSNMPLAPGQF
How it was run: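 Values are percent inhibition of specific [3H]prazosin (0.3 nM) binding or estimated Ki, from filtration counting. Human α1B recombinant membranes, Tris-HCl pH 7.4 buffer with MgCl2 and EDTA, 60 min at 25 °C, 1% DMSO vehicle; 10 μM prazosin defined nonspecific binding.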

Structure (SMILES)	Percentage inhibition of ligand binding, Adrenergic α2B (10 nM) ([1]; 10 nM compound) [%]	Percentage inhibition of ligand binding, Adrenergic α2B (30 nM) [1] [%]	Percentage inhibition of ligand binding, Adrenergic α2B (0.1 μM) [1] [%]	Percentage inhibition of ligand binding, Adrenergic α2A (0.1 μM) [2] [%]	Percentage inhibition of ligand binding, Adrenergic α2A (0.3 μM) ([2]; 0.3 µM) [%]	Percentage inhibition of ligand binding, Adrenergic α1B (0.1 μM) [3] [%]	Percentage inhibition of ligand binding, Adrenergic α1B (0.3 μM) [3] [%]	inhibition at 0.01 µM ([1]; 10 nM compound, read-out: Percentage inhibition of ligand binding, Adrenergic α2B (10 nM)) [%]	inhibition at 0.03 µM [1] [%]	inhibition at 0.3 µM [3] [%]	Percentage inhibition of ligand binding, Adrenergic α2A (0.3 μM) [2] [%]
Cc1cc(C)c2c(c1)c1c(n2CC(C)(O)c2ccncc2)CCN2CCCC12 (centres unmarked) [compound 19, 1-(8,10-dimethyl-2,3,5,6-tetrahydro-1H-indolizino[7,8-b]indol-7(11cH)-yl)-2-(pyridin-4-yl)propan-2-ol]	81	95	100	59	79	77	91				
CC(O)(Cn1c2c(c3cc(Cl)cc(F)c31)C1CCCN1CC2)c1ccncc1 (single isomer, unassigned) [52d]			1	−6	1	−1	27	9	6		
Cc1ccc2c(c1)c1c(n2CC(C)(O)c2cccnc2)CC2CCC1N2C (single isomer, unassigned) [101b]	2	3	32	1	8	−3				5	
Cc1ccc2c(c1)c1c(n2CC(C)(O)c2ccc(F)cc2)CC2CCC1N2C (single isomer, unassigned) [102a]	2	13	38	−8	5	5	22				
CC(O)(Cn1c2c(c3cc(Cl)cc(F)c31)CN1CCCC1C2)c1cccnc1 (single isomer, unassigned) [63a]	25	55	84	3	32	2	24				
Cc1ccc2c(c1)c1c(n2CC(C)(O)c2cncc(F)c2)CCN(C)C1 (single isomer, unassigned) [46a]	33	60	82	20	35	6	27				
Cc1ccc2c(c1)c1c(n2CC(O)c2cccnc2)CC2CCCN2C1 (single isomer, unassigned) [27b]	26	48	67	10		13	41				20
Cc1cc(C)c2c(c1)c1c(n2CC(C)(O)c2ccncc2)CCN2CCCC12 (single isomer, unassigned) [19d]	−9	−4	−1	−8	−5	−8	−5				
Cc1cc(C)c2c(c1)c1c(n2CC(O)C2CCCCC2)CCN2CCCC12 (centres unmarked) [141b]		92		81		57					
Cc1ccc2c(c1)c1c(n2CC(C)(O)c2cccnc2)CC2CCC1N2C (single isomer, unassigned) [101d]	−2	−3	9	−10	3	4	8				
Cc1ccc2c(c1)c1c(n2CC(C)(O)c2ccc(F)cc2)CN2CCC1C2 (single isomer, unassigned) [134c]		8		4		8					
Cc1ccc2c(c1)c1c(n2CC(C)(O)c2cccnc2)CC(CO)N(C)C1 (single isomer, unassigned) [15b]	6	−11	16	1	0	12	16				
Cc1ccc2c(c1)c1c(n2CC(C)(O)c2ccc(F)cc2)CN2CCC1C2 (single isomer, unassigned) [134d]		22		15		28					
OC(Cn1c2c(c3cc(Cl)cc(F)c31)C1CCCN1CC2)c1ccncc1 (single isomer, unassigned) [135c]	4			12	18	1			10	12	
Cc1ccc2c(c1)c1c(n2CC(O)c2ccccn2)CC2CCCN2C1 (single isomer, unassigned) [45d]	−10	0	34	−7	−2	4	18				
